In the NIST ThermoML archive (doi:10.1016/j.fluid.2004.11.019):

Assay: xn = mol fraction of the nth substance listed
Conditions: Liquid

CCO [ethanol] + O
mass density [kg/m3]
Conditions	100 kPa	10000 kPa	20000 kPa	30000 kPa	40000 kPa
323.15 K, x1 = 0.003	–	–	–	999	1003.1
323.15 K, x1 = 0.0042	–	–	–	998	1002
323.15 K, x1 = 0.0082	–	–	–	996.5	1000.5
323.15 K, x1 = 0.0119	–	–	–	995.2	999.2
323.15 K, x1 = 0.0158	–	–	–	993	996.9
323.15 K, x1 = 0.0184	–	–	–	991.5	995.5
323.15 K, x1 = 0.0219	–	–	–	990.4	994.4
323.15 K, x1 = 0.0255	–	–	–	988.7	992.7
323.15 K, x1 = 0.0279	–	–	–	987.1	991.1
323.15 K, x1 = 0.0315	–	–	–	986.3	990.2
323.15 K, x1 = 0.0366	–	–	–	983.6	987.6
323.15 K, x1 = 0.0392	–	–	–	982.4	986.3
323.15 K, x1 = 0.0439	–	–	–	980.8	984.7
323.15 K, x1 = 0.0483	–	–	–	978.8	982.7
323.15 K, x1 = 0.0516	–	–	–	978	982
323.15 K, x1 = 0.0559	–	–	–	976.6	980.5
323.15 K, x1 = 0.06	–	–	–	975.1	979.1
323.15 K, x1 = 0.0652	–	–	–	973.1	977
323.15 K, x1 = 0.0679	–	–	–	972.3	976.3
323.15 K, x1 = 0.0722	–	–	–	970.5	974.4
323.15 K, x1 = 0.0801	–	–	–	967.4	971.4
323.15 K, x1 = 0.084	–	–	–	967	970.9
323.15 K, x1 = 0.0879	–	–	–	965.3	969.2
323.15 K, x1 = 0.0926	–	–	–	963.7	967.6
323.15 K, x1 = 0.0958	–	–	–	962.6	966.5
323.15 K, x1 = 0.1006	–	–	–	961	964.9
323.15 K, x1 = 0.1111	–	–	–	957.3	961.3
323.15 K, x1 = 0.1225	–	–	949.2	953.4	957.4
323.15 K, x1 = 0.1296	–	–	946.9	951.1	955.2
323.15 K, x1 = 0.1402	–	–	943.3	947.6	951.7
323.15 K, x1 = 0.151	–	–	939.7	944	948.2
323.15 K, x1 = 0.1601	–	–	936.7	941.1	945.3
323.15 K, x1 = 0.1703	–	–	933.3	937.7	942
323.15 K, x1 = 0.18	–	–	930.1	934.6	938.9
323.15 K, x1 = 0.1903	–	–	926.8	931.4	935.8
323.15 K, x1 = 0.1996	–	–	923.8	928.4	932.9
323.15 K, x1 = 0.2269	–	–	915.3	920.1	924.7
323.15 K, x1 = 0.2502	–	–	908.5	913.5	918.2
323.15 K, x1 = 0.2745	–	–	901.6	906.7	911.5
323.15 K, x1 = 0.3009	–	–	894.7	899.8	904.8
323.15 K, x1 = 0.35	–	–	882.1	887.5	892.7
323.15 K, x1 = 0.4034	–	–	869.8	875.5	881
323.15 K, x1 = 0.4501	–	–	859.7	865.7	871.3
323.15 K, x1 = 0.498	–	–	850.6	856.8	862.6
323.15 K, x1 = 0.5501	–	–	841.2	847.6	853.6
323.15 K, x1 = 0.5998	–	–	833.5	839.6	845.8
323.15 K, x1 = 0.6489	–	–	825.3	832.1	838.5
323.15 K, x1 = 0.6967	–	–	818.4	825.4	831.9
323.15 K, x1 = 0.7475	–	–	811.7	818.8	825.5
323.15 K, x1 = 0.7996	–	–	804.9	812.3	819.1
323.15 K, x1 = 0.8484	–	–	799.1	806.6	813.6
323.15 K, x1 = 0.8993	–	–	793.2	800.9	808
323.15 K, x1 = 0.9503	–	–	787.7	795.6	802.8
323.15 K, x1 = 1	–	–	782.3	790.3	797.7
348.15 K, x1 = 0.003	973.1	977.5	981.9	986.1	990.1
348.15 K, x1 = 0.0042	971.9	976.3	980.6	984.8	988.8
348.15 K, x1 = 0.0082	970.7	975	979.4	983.6	987.6
348.15 K, x1 = 0.0119	969.1	973.4	977.7	981.9	986
348.15 K, x1 = 0.0158	966.6	971	975.3	979.4	983.5
348.15 K, x1 = 0.0184	965.4	969.6	973.9	978.1	982.1
348.15 K, x1 = 0.0219	963.9	968.2	972.6	976.7	980.8
348.15 K, x1 = 0.0255	962	966.4	970.7	975	979
348.15 K, x1 = 0.0279	960.4	964.8	969.1	973.3	977.3
348.15 K, x1 = 0.0315	959.4	963.8	968	972.3	976.3
348.15 K, x1 = 0.0366	956.7	961	965.3	969.5	973.6
348.15 K, x1 = 0.0392	955.3	959.6	963.8	968.1	972.1
348.15 K, x1 = 0.0439	953.5	957.8	962.1	966.3	970.4
348.15 K, x1 = 0.0483	951.2	955.6	959.9	964.1	968.2
348.15 K, x1 = 0.0516	950.2	954.6	958.9	963.2	967.3
348.15 K, x1 = 0.0559	948.8	953.2	957.5	961.7	965.9
348.15 K, x1 = 0.06	946.9	951.3	955.8	960	964.1
348.15 K, x1 = 0.0652	944.8	949.1	953.5	957.8	961.9
348.15 K, x1 = 0.0679	943.7	948.2	952.5	956.8	960.9
348.15 K, x1 = 0.0722	941.5	946.1	950.4	954.7	958.9
348.15 K, x1 = 0.0801	938.1	942.6	947	951.3	955.6
348.15 K, x1 = 0.084	937.5	941.9	946.3	950.7	954.9
348.15 K, x1 = 0.0879	935.3	939.9	944.4	948.8	953
348.15 K, x1 = 0.0926	933.6	938.1	942.6	947	951.3
348.15 K, x1 = 0.0958	932.2	936.8	941.3	945.7	950
348.15 K, x1 = 0.1006	930.2	934.9	939.4	943.9	948.1
348.15 K, x1 = 0.1111	925.9	930.7	935.3	939.8	944.2
348.15 K, x1 = 0.1225	921.5	926.3	931.1	935.6	940
348.15 K, x1 = 0.1296	918.7	923.6	928.3	932.9	937.4
348.15 K, x1 = 0.1402	914.6	919.5	924.4	929.1	933.7
348.15 K, x1 = 0.151	910.4	915.4	920.3	925.1	929.7
348.15 K, x1 = 0.1601	906.9	912.1	917.1	922	926.6
348.15 K, x1 = 0.1703	903.1	908.4	913.5	918.4	923.1
348.15 K, x1 = 0.18	899.5	904.8	910	915	919.8
348.15 K, x1 = 0.1903	895.8	901.3	906.5	911.6	916.4
348.15 K, x1 = 0.1996	892.6	898.1	903.4	908.5	913.4
348.15 K, x1 = 0.2269	883.1	888.9	894.4	899.7	904.8
348.15 K, x1 = 0.2502	875.6	881.6	887.3	892.8	898.1
348.15 K, x1 = 0.2745	868	874.2	880.2	885.8	891.1
348.15 K, x1 = 0.3009	860.4	866.8	872.9	878.6	884.2
348.15 K, x1 = 0.35	846.7	853.6	860	866.2	872
348.15 K, x1 = 0.4034	833.4	840.7	847.5	854	860
348.15 K, x1 = 0.4501	822.7	830.3	837.4	844.2	850.5
348.15 K, x1 = 0.498	812.7	820.7	828.1	835.1	841.6
348.15 K, x1 = 0.5501	802.6	811	818.7	825.9	832.7
348.15 K, x1 = 0.5998	793.8	802.5	810.5	818	824.9
348.15 K, x1 = 0.6489	785.6	794.6	802.9	810.6	817.8
348.15 K, x1 = 0.6967	778.2	787.6	796.1	804	811.3
348.15 K, x1 = 0.7475	770.9	780.7	789.4	797.6	805.1
348.15 K, x1 = 0.7996	763.9	774	783	791.3	799
348.15 K, x1 = 0.8484	757.6	768	777.3	785.8	793.6
348.15 K, x1 = 0.8993	751.5	762.1	771.6	780.3	788.3
348.15 K, x1 = 0.9503	745.7	756.7	766.4	775.2	783.4
348.15 K, x1 = 1	739.4	751.2	761.2	770.3	778.6
